For the test, the system named is human Treg cells. The test can be described thus: Inhibitory activity of human Treg cells in in vitro assays of T cell stimulation (anti-CD3 or MLR, tritiated thymidine proliferation). The class given is cell-based. The settings on record: all treatment groups (0.01 ug/ml, 0.1 ug/ml and 1 ug/ml), 72 hours culture; compared to controls that received scrambled peptide (FFSAFLSEC). On the procedure: Isolation of human CD4+, CD4+CD25+, and CD4+CD25− T cells was performed from PBMC by using human Treg isolation kits (Miltenyi Biotec), respectively, according to the manufacturer's instructions. The purity of the resulting T cell populations was confirmed to be >95% by flow cytometry.
Inhibitory activity of human Treg cells was measured in in vitro assays of T cell stimulation. CD25-depleted spleen cells (10^5 cells/well) from human PBMC (105) were stimulated in vitro with the following: anti-human CD3 Ab (BD Pharmingen) or human PBMC (105) from a different donor (to induce a MLR). Cultures were maintained for 72 hours in the presence of SAFFLFCSE peptide at concentrations of 0.01 ug/ml, 0.1 ug/ml and 1 ug/ml. Tritiated thymidine was added at a concentration of 1 microcurie per well for the last 12 hours of culture. Scintillation counting was used to assess proliferation.

On to SAFFLFCSE, for which the “inhibition of T regulatory cell suppressive activity” value is reported as above 80%.

These data come from patent US20160022761A1, “DEREPRESSION OF IMMUNITY IN ONCOLOGICAL AND VIROLOGICAL CONDITIONS BY HIGH MOBILITY GROUP BOX 1 DERIVED PEPTIDES” (priority 2014, published 2016).
